Experimental data taken from patent US10294207B2, “Pyrazole derivatives as TNIK, IKKϵ and TBK1 inhibitor and pharmaceutical composition comprising same” (GREEN CROSS CORPORATION, priority 2015, dated 2019).

Legend:
[1] = biological target: T1, TNIK (Homo sapiens, UniProt Q9UKE5); assay: TNIK inhibition, ADP-Glo Kinase Assay; assay type: biochemical; conditions: luminometer
T1 construct: purchased Promega V4158
Description: Inhibition activities on TNIK, IKKε and TBK1 were evaluated using the compounds of Examples 1 to 254.
The inhibition activities on TNIK, IKKε and TBK1 were measured by a luminometer, TNIK/IKKε/TBK1 Kinase Enzyme System (Promega, Ca# V4158; Invitrogen, PR8031B, Promega, Ca# V3991) and ADP-Glo Kinase Assay using ADP-Glo™ Kinase Analysis Kit (Promega, Ca# V9101) and a kinase reaction buffer [40 mM Tris(pH 7.5), 20 mM MgCl2, 0.1 mg/mL BSA] in accordance with the manufacturer's protocol.

[2] = biological target: T2, TBK1 (Homo sapiens, UniProt Q9UHD2); assay: TBK1 inhibition, ADP-Glo Kinase Assay; assay type: biochemical; conditions: luminometer
T2 construct: purchased Promega V3991
T2 sequence (Q9UHD2 1-729): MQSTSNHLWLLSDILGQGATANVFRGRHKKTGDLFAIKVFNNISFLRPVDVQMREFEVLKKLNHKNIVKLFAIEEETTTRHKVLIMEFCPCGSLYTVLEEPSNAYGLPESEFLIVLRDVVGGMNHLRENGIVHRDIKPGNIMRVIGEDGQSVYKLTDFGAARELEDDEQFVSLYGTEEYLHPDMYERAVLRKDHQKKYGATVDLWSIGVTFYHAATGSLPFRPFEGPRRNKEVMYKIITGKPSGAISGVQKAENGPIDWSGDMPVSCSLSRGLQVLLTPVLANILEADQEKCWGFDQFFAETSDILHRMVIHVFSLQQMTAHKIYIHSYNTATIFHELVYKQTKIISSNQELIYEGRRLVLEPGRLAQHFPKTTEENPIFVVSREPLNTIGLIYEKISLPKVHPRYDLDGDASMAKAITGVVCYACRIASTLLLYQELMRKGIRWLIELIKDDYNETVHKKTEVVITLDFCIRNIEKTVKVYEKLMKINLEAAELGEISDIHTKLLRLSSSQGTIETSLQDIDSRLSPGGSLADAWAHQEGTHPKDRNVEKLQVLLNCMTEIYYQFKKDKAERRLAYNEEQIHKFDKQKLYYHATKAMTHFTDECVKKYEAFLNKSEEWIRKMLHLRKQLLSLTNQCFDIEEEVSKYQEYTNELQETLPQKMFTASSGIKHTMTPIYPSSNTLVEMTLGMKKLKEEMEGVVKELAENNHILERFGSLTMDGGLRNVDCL
Outline: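 ADP-Glo luminescence reported ADP produced by each kinase, following the kit protocol. Reactions used commercial kinase enzyme systems in buffer of 40 mM Tris (pH 7.5), 20 mM MgCl2 and 0.1 mg/mL BSA.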

T1 sequence (Q9UKE5 1-367 limits assumed): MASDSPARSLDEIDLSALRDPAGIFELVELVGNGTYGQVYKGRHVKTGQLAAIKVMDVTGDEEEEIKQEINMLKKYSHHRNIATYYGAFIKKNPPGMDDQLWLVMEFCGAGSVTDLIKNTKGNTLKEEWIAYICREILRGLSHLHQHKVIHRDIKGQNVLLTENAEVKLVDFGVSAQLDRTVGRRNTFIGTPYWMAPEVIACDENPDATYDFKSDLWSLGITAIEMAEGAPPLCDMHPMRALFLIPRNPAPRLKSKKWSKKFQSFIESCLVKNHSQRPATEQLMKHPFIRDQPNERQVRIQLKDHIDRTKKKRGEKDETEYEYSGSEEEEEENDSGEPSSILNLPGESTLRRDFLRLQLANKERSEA

Cc1cnc(-c2cc3[nH]nc(NC(=O)c4ccc(NCCN5CCCC5)cc4)c3s2)o1 [Example 226, N-(5-(5-methyloxazol-2-yl)-1H-thieno[3,2-c]pyrazol-3-yl)-4-((2-(pyrrolidin-1-yl)ethyl)amino)benzamide]
IC50 [1]: 0.15 µM
IC50 [2]: 0.12 µM

COC(=O)c1cc2[nH]nc(-c3ccccc3)c2s1 [Example 236, methyl 3-phenyl-1H-thieno[3,2-c]pyrazole-5-carboxylate]
IC50 [1]: 1.27 µM
IC50 [2]: > 10 µM

CCNC(=O)c1cc2[nH]nc(-c3ccc(N4CCOCC4)cc3)c2s1 [Example 241, N-ethyl-3-(4-morpholinophenyl)-1H-thieno[3,2-c]pyrazole-5-carboxamide]
IC50 [1]: 1.09 µM
IC50 [2]: > 10 µM

Cc1cnc(-c2cc3[nH]nc(NC(=O)c4ccc(F)cc4)c3s2)o1 [Example 221, 4-fluoro-N-(5-(5-methyloxazol-2-yl)-1H-thieno[3,2-c]pyrazol-3-yl)benzamide]
IC50 [1]: 0.65 µM
IC50 [2]: 1.7 µM

COc1ccc(C(=O)Nc2n[nH]c3cc(-c4ncc(C)o4)sc23)cc1 [Example 222, 4-methoxy-N-(5-(5-methyloxazol-2-yl)-1H-thieno[3,2-c]pyrazol-3-yl)benzamide]
IC50 [1]: 0.31 µM
IC50 [2]: 0.35 µM

Cc1cnc(-c2cc3[nH]nc(NC(=O)c4ccc(N5CCOCC5)cc4)c3s2)s1 [Example 219, N-(5-(5-methylthiazol-2-yl)-1H-thieno[3,2-c]pyrazol-3-yl)-4-morpholinobenzamide]
IC50 [1]: 0.13 µM
IC50 [2]: 0.33 µM

CCc1cnc(-c2cc3[nH]nc(NC(=O)c4ccc(N5CCOCC5)cc4)c3s2)s1 [Example 252, N-(5-(5-ethylthiazol-2-yl)-1H-thieno[3,2-c]pyrazol-3-yl)-4-morpholinobenzamide]
IC50 [1]: 0.41 µM
IC50 [2]: 1.3 µM

Cc1cnc(-c2cc3[nH]nc(NC(=O)c4ccccc4)c3s2)o1 [Example 220, N-(5-(5-methyloxazol-2-yl)-1H-thieno[3,2-c]pyrazol-3-yl)benzamide]
IC50 [1]: 0.36 µM
IC50 [2]: 1.2 µM

CCNC(=O)c1cc2[nH]nc(-c3ccc(F)cc3)c2s1 [Example 240, N-ethyl-3-(4-fluorophenyl)-1H-thieno[3,2-c]pyrazole-5-carboxamide]
IC50 [1]: 2.85 µM
IC50 [2]: > 10 µM

O=C(c1cc2[nH]nc(-c3ccc(N4CCOCC4)cc3)c2s1)N1CCCC1 [Example 248, (3-(4-morpholinophenyl)-1H-thieno[3,2-c]pyrazol-5-yl)(pyrrolidin-1-yl)methanone]
IC50 [1]: 8.09 µM

COC(=O)c1cc2[nH]nc(-c3ccc(NC(C)=O)cc3)c2s1 [Example 245, methyl 3-(4-acetamidophenyl)-1H-thieno[3,2-c]pyrazole-5-carboxylate]
IC50 [1]: 0.16 µM

Cc1cnc(-c2cc3[nH]nc(-c4ccc(OCCN5CCOCC5)cc4)c3s2)o1 [Example 250, 4-(2-(4-(5-(5-methyloxazol-2-yl)-1H-thieno[3,2-c]pyrazol-3-yl)phenoxy)ethyl)morpholine]
IC50 [1]: 0.11 µM

Cc1cnc(-c2cc3[nH]nc(-c4ccc(F)cc4)c3s2)s1 [Example 247, 3-(4-fluorophenyl)-5-(5-methylthiazol-2-yl)-1H-thieno[3,2-c]pyrazole]
IC50 [1]: > 20 µM

COC(=O)c1cc2[nH]nc(-c3ccc(OC)cc3)c2s1 [Example 231, methyl 3-(4-methoxyphenyl)-1H-thieno[3,2-c]pyrazole-5-carboxylate]
IC50 [1]: 0.54 µM
IC50 [2]: > 10 µM

Cc1cnc(-c2cc3[nH]nc(-c4ccc(N5CCOCC5)cc4)c3s2)o1 [Example 243, 4-(4-(5-(5-methyloxazol-2-yl)-1H-thieno[3,2-c]pyrazol-3-yl)phenyl)morpholine]
IC50 [1]: 0.15 µM
IC50 [2]: > 10 µM

COC(=O)c1cc2[nH]nc(-c3ccc(N4CCOCC4)cc3)c2s1 [Example 254, methyl 3-(4-morpholinophenyl)-1H-thieno[3,2-c]pyrazole-5-carboxylate]
IC50 [1]: 0.3 µM
IC50 [2]: > 10 µM

COC(=O)c1cc2[nH]nc(-c3ccc(N(C)C)cc3)c2s1 [Example 234, methyl 3-(4-(dimethylamino)phenyl)-1H-thieno[3,2-c]pyrazole-5-carboxylate]
TNIK (μM), inhibition activity [1]: insoluble

Cc1cnc(-c2cc3[nH]nc(-c4ccc(F)cc4)c3s2)o1 [Example 246, 2-(3-(4-fluorophenyl)-1H-thieno[3,2-c]pyrazol-5-yl)-5-methyloxazole]
IC50 [1]: 0.5 µM

COC(=O)c1cc2[nH]nc(-c3ccc(OCCN4CCOCC4)cc3)c2s1 [Example 249, methyl 3-(4-(2-morpholinoethoxy)phenyl)-1H-thieno[3,2-c]pyrazole-5-carboxylate]
IC50 [1]: 0.47 µM

O=C(NCCN1CCOCC1)c1cc2[nH]nc(-c3ccc(F)cc3)c2s1 [Example 242, 3-(4-fluorophenyl)-N-(2-morpholinoethyl)-1H-thieno[3,2-c]pyrazole-5-carboxamide]
IC50 [1]: > 20 µM
IC50 [2]: > 10 µM

Cc1cnc(-c2cc3[nH]nc(NC(=O)c4ccc(N5CCOCC5)cc4)c3s2)o1 [Example 218, N-(5-(5-methyloxazol-2-yl)-1H-thieno[3,2-c]pyrazol-3-yl)-4-morpholinobenzamide]
IC50 [1]: 0.048 µM

CCc1cnc(-c2cc3[nH]nc(-c4ccc(N5CCOCC5)cc4)c3s2)o1 [Example 244, 4-(4-(5-(5-ethyloxazol-2-yl)-1H-thieno[3,2-c]pyrazol-3-yl)phenyl)morpholine]
IC50 [1]: 1.01 µM

Cc1cnc(-c2cc3[nH]nc(NC(=O)c4ccc(NCCO)cc4)c3s2)o1 [Example 228, 4-((2-hydroxyethyl)amino)-N-(5-(5-methyloxazol-2-yl)-1H-thieno[3,2-c]pyrazol-3-yl)benzamide]
IC50 [1]: 0.11 µM
IC50 [2]: 0.12 µM

COc1ccc(-c2n[nH]c3cc(-c4ncc(C)o4)sc23)cc1 [Example 235, 2-(3-(4-methoxyphenyl)-1H-thieno[3,2-c]pyrazol-5-yl)-5-methyloxazole]
IC50 [1]: 0.34 µM
IC50 [2]: > 10 µM

COC(=O)c1cc2[nH]nc(-c3ccc(F)cc3)c2s1 [Example 239, methyl 3-(4-fluorophenyl)-1H-thieno[3,2-c]pyrazole-5-carboxylate]
IC50 [1]: 0.86 µM
IC50 [2]: > 10 µM

Cc1cnc(-c2cc3[nH]nc(NC(=O)c4ccc(NCCN5CCOCC5)cc4)c3s2)o1 [Example 227, N-(5-(5-methyloxazol-2-yl)-1H-thieno[3,2-c]pyrazol-3-yl)-4-((2-morpholinoethyl)amino)benzamide]
IC50 [1]: 0.085 µM
IC50 [2]: 0.12 µM

Cc1cnc(-c2cc3[nH]nc(NC(=O)c4ccc(N(C)C)cc4)c3s2)o1 [Example 223, 4-(dimethylamino)-N-(5-(5-methyloxazol-2-yl)-1H-thieno[3,2-c]pyrazol-3-yl)benzamide]
IC50 [1]: 0.11 µM
IC50 [2]: 0.094 µM

COc1ccc(-c2n[nH]c3cc(C(=O)NC(C)C)sc23)cc1 [Example 233, N-isopropyl-3-(4-methoxyphenyl)-1H-thieno[3,2-c]pyrazole-5-carboxamide]
IC50 [1]: 2.86 µM
IC50 [2]: > 10 µM

Cc1cnc(-c2cc3[nH]nc(NC(=O)c4ccc(NCCN5CCCCC5)cc4)c3s2)s1 [Example 253, N-(5-(5-methylthiazol-2-yl)-1H-thieno[3,2-c]pyrazol-3-yl)-4-((2-(piperidin-1-yl)ethyl)amino)benzamide]
IC50 [1]: 0.28 µM
IC50 [2]: 0.62 µM

Cc1cnc(-c2cc3[nH]nc(NC(=O)c4ccc(N(C)C)cc4)c3s2)s1 [Example 251, 4-(dimethylamino)-N-(5-(5-methylthiazol-2-yl)-1H-thieno[3,2-c]pyrazol-3-yl)benzamide]
IC50 [1]: 0.25 µM
IC50 [2]: 1.4 µM

Cc1cnc(-c2cc3[nH]nc(NC(=O)c4cccc(F)c4)c3s2)o1 [Example 230, 3-fluoro-N-(5-(5-methyloxazol-2-yl)-1H-thieno[3,2-c]pyrazol-3-yl)benzamide]
IC50 [1]: 0.66 µM
IC50 [2]: 1.7 µM

CCNC(=O)c1cc2[nH]nc(-c3ccc(OC)cc3)c2s1 [Example 232, N-ethyl-3-(4-methoxyphenyl)-1H-thieno[3,2-c]pyrazole-5-carboxamide]
IC50 [1]: 1.95 µM
IC50 [2]: > 10 µM

COCCNc1ccc(C(=O)Nc2n[nH]c3cc(-c4ncc(C)o4)sc23)cc1 [Example 229, 4-((2-methoxyethyl)amino)-N-(5-(5-methyloxazol-2-yl)-1H-thieno[3,2-c]pyrazol-3-yl)benzamide]
IC50 [1]: 0.15 µM
IC50 [2]: 0.14 µM
